IC50 data for 12 compounds are collected here from US20260158009A1 (GENZYME CORPORATION, priority 2023, published 2026).

Experiment [1] concerns the target T1, hRIPK1 (aa 1-375) fusion protein (Homo sapiens, UniProt Q13546).
T1 construct: hRIPK1 (aa 1-375) fusion protein
T1 sequence (Q13546 1-375): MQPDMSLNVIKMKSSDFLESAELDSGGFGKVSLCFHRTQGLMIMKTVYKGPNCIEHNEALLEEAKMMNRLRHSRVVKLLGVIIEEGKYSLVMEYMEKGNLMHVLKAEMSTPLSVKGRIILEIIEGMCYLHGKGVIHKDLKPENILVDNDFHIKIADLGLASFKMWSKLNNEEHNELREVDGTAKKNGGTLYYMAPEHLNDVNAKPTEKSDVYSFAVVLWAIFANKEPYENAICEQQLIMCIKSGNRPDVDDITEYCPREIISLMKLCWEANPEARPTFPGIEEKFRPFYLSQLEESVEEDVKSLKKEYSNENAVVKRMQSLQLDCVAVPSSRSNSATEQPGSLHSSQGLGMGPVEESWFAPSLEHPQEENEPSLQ
Kind of experiment: ADP-Glo kinase assay: catalytic activity of RIPK1 (autophosphorylation, conversion of ATP to ADP). In kind it is biochemical. The procedure, abridged: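 The readout was ADP-Glo luminescence after a 240 min rt autophosphorylation reaction with 50 μM ATP, following 30 min preincubation of 3.6 μg/ml hRIPK1 (aa 1-375) fusion with compound at 33300-1.69 nM final in 1% DMSO. Values came from Levenberg-Marquardt nonlinear fits.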
On the technique in general: In ADP-Glo the light output rises with the ADP produced.

Another experiment deals with U937 cells. In words: Cellular assay in U937 cells: activity of RIPK1 inhibitors on TNFα/zVAD.fmk-induced cell death (necroptosis), CellTiter 96 AQueous (MTS) readout. It counts as cell-based. As to conditions: Homo sapiens, U-937. A digest of the protocol:
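Necroptosis was measured by viable-cell MTS reduction (4 h, absorbance 490 nm) after overnight (18–24 h) 37° C culture. Cell suspensions of U937 cells carried TNFα (100 ng/ml) plus zVAD.fmk (50 μM) before compound was added. A 10-point curve (10 μM–0.26 nM or 1 μM–0.07 nM) was run in duplicate, normalised to the control lacking TNFα/zVAD.fmk.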

As for `Cc1cn2nc(C[C@H]3CC[C@H](C(=O)N4OCC[C@H]4c4cc(F)cc(C#N)c4)CC3)cc(C)c2n1` [compound 290, trans-3-[(3S)-2-[4-[(2,8-dimethylimidazo[1,2-b]pyridazin-6-yl)methyl]cyclohexanecarbonyl]isoxazolidin-3-yl]-5-fluoro-benzonitrile], the figures for the IC50 (in experiment [1]; in the experiment with U937 cells) were 11 nM and 4 nM, respectively.
The like results for `Cc1ccc([C@@H]2CCON2C(=O)[C@H]2C[C@H](Cn3cnc4cc(F)ccc43)C2)cc1` [compound 114, trans-(3-((5-fluoro-1H-benzo[d]imidazol-1-yl)methyl)cyclobutyl)((S)-3-(p-tolyl)isoxazolidin-2-yl)methanone] were, in that order, 34 nM and 174 nM.
The like results for `Cc1nc([C@@H]2CCON2C(=O)[C@H]2CC[C@H](Cn3ncc4ccc(C(N)=O)cc43)CC2)cs1` [Compound 234, trans-1-[[4-[(3S)-3-(2-methylthiazol-4-yl)isoxazolidine-2-carbonyl]cyclohexyl]methyl]indazole-6-carboxamide] were, in that order, 49 nM and 126 nM.
The like results for `Cc1ccc([C@@H]2CCON2C(=O)C23CCC(Cc4ccc(C)c(C(N)=O)c4)(CC2)CC3)cn1` [compound 272, 2-methyl-5-[[4-[(3S)-3-(6-methyl-3-pyridyl)isoxazolidine-2-carbonyl]-1-bicyclo[2.2.2]octanyl]methyl]benzamide] were, in that order, 29 nM and 206 nM.
As for `N#Cc1cc2c(cnn2C[C@H]2CC[C@H](C(=O)N3OCC[C@H]3c3cc(F)cc(F)c3)CC2)cc1F` [compound 86, trans-1-((4-((S)-3-(3,5-difluorophenyl)isoxazolidine-2-carbonyl)cyclohexyl)methyl)-5-fluoro-1H-indazole-6-carbonitrile], the figures for the IC50 (in experiment [1]; with U937 cells) were 14 nM and 1 nM, respectively.
For `Cc1ncc(C#N)cc1C[C@H]1CC[C@H](C(=O)N2OCC[C@H]2c2cc(F)cc(F)c2)CC1` [compound 278, trans-5-[[4-[(3S)-3-(3,5-difluorophenyl)isoxazolidine-2-carbonyl]cyclohexyl]methyl]-6-methyl-pyridine-3-carbonitrile], the half-maximal inhibitory concentration (IC50) came to 16 nM in experiment [1] and 3 nM in the experiment on U937 cells.
The like results for `Cc1nc2ccc(C[C@H]3CC[C@H](C(=O)N4OCC[C@H]4c4cnccn4)CC3)cn2n1` [compound 222, trans-[4-[(2-methyl-[1,2,4]triazolo[1,5-a]pyridin-6-yl)methyl]cyclohexyl]-[(3S)-3-pyrazin-2-ylisoxazolidin-2-yl]methanone] were, in that order, 37 nM and 48 nM.
For `Cn1nccc1-c1cc(F)cc(C[C@H]2CC[C@H](C(=O)N3OCC[C@H]3c3cnccn3)CC2)c1` [compound 211, trans-[4-[[3-fluoro-5-(2-methylpyrazol-3-yl)phenyl]methyl]cyclohexyl]-[(3S)-3-pyrazin-2-ylisoxazolidin-2-yl]methanone], the values for the half-inhibitory concentration (IC50) (in experiment [1]; in the experiment on U937 cells) were 18 nM and 20 nM, respectively.
The like results for `O=C1NCc2ccc(C[C@H]3CC[C@H](C(=O)N4OCC[C@H]4c4cnccn4)CC3)cc21` [compound 145, trans-6-[[4-[(3S)-3-pyrazin-2-ylisoxazolidine-2-carbonyl]cyclohexyl]methyl]isoindolin-1-one] were, in that order, 29 nM and 16 nM.
The like results for `Cc1cn(C[C@H]2CC[C@H](C(=O)N3OCC[C@H]3c3cc(F)cc(C#N)c3)CC2)c2cc(C(N)=O)ccc12` [compound 110, trans-1-((4-((S)-3-(3-cyano-5-fluorophenyl)isoxazolidine-2-carbonyl)cyclohexyl)methyl)-3-methyl-1H-indole-6-carboxamide] were, in that order, 22 nM and 11 nM.
The like results for `Cc1ccc(C[C@H]2CC[C@H](C(=O)N3OCC[C@H]3c3cc(F)cc(C#N)c3)CC2)cc1C(N)=O` [compound 133, trans-5-[[4-[(3S)-3-(3-cyano-5-fluoro-phenyl)isoxazolidine-2-carbonyl]cyclohexyl]methyl]-2-methyl-benzamide] were, in that order, 8 nM and 8 nM.
As for `Cc1nc([C@@H]2CCON2C(=O)[C@H]2CC[C@H](Cn3ncc4ncc(C#N)cc43)CC2)cs1` [compound 199, trans-1-[[4-[(3S)-3-(2-methylthiazol-4-yl)isoxazolidine-2-carbonyl]cyclohexyl]methyl]pyrazolo[4,3-b]pyridine-6-carbonitrile], the concentration for half-maximal inhibition (IC50) in experiment [1] is 18 nM; in the experiment on U937 cells, 51 nM.

One may read the IC50 as the concentration that inhibits the measured activity by half. A low value points to higher potency.
